Consider 2 substances from patent publication EP4233857A1, “BIOACTIVE COMPOUNDS OBTAINED FROM CY[…] SP. LEGE 181152” (CIIMAR - Centro Interdisciplinar de Investigação Marinha e …, priority 2022, dated 2023).

pIC50: −log10 of the molar value. “Also recorded” adds a separate entry of the source.

One series deals with brine shrimp. The conditions noted are these: cited from earlier work.
Series [1] has as its system panel of 60 human cancer cell lines. The following applies: Williamson et al., 2002; cited from earlier work.
In series [2] the test system is human colorectal carcinoma cell line, HCT 116. Kind of series: Cytotoxicity on 3D cancer spheroids, cell viability by acid phosphatase assay. It counts as cell-based. Here is the method: The cytotoxicity of the fractions A to H2 was tested against the 3D model of the human colorectal carcinoma cell line, HCT 116. Colorectal cancer has one of the highest incidences among cancer diagnosis and is also one of cancers with the highest mortality rate. Over the years, the 3D cell models have taken over drug screening due to their biologically relevance when compared to the more conventional monolayer model. Three dimensional spheroids are more representative of the microenvironment of an in vivo tumour, with interactions between cells in the different layers - a necrotic core, an intermediate quiescent layer, and a proliferative outer layer.
Cells were seeded in ULA 96 well plates and incubated for 5 days for spheroid formation. After formation, spheroids were exposed to the fractions (25 µg/mL) for 96h. Cell viability was assessed by the acid phosphatase assay. In viable cells these intracellular enzymes hydrolyse […], which can be quantified colorimetrically at 405 nm. The results were expressed as the percentage of cell viability normalized to the solvent control (DMSO). […]

For series [3], the system named is HCT 116 human colon carcinoma cells. Description: Cytotoxicity on monolayer (2D) cells. In kind it is cell-based. The conditions noted are these: 2D assay (monolayer). Here is the method: The cytotoxic effect of phormidolide D (3) was tested against HCT 116 human colon carcinoma cells in monolayer (2D) and spheroid models (Figure 11). […] The difference of the IC50 values between the two cell models is commonly reported in the literature. Cancer spheroids tend to be more resistant to treatment than monolayer cells, and thus tend to present higher IC50 values. However, the cytotoxic effects in cancer spheroids are more realistic, because in this culture model, drug diffusion and cell proliferation effects are being tested. The results obtained for compound 3 are very interesting: despite its molecular weight (1064 g/mol) it can still penetrate the tightly packed cells of the outer layer of the spheroid, leading to a decrease in the cell viability in relevant concentrations (Figure 9). […]

Turning to phormidolide A, the LD50 with brine shrimp is given as 1.5 µM. Further, the “cytotoxicity against a panel of 60 cancer cells” value in series [1] is reported as “noncytotoxic; also recorded: not considered active”.

On to phormidolide D, for which the pIC50 (as a rule, the negative decadic logarithm of the IC50, by convention in mol/L) was 4.87 in series [2] and 5.92 in series [3].
